Test results taken from PubChem BioAssay AID320 (DTP/NCI, 2004).
Values joined by “and” are separate entries in the source; they are usually repeats but may differ in a detail not shown here. Equal values may be shown once. Toxic doses and inconclusive results are not listed. Rule for the calls: active = survival T/C of 150% or more; inactive = T/C below 125% in these data.

Tested on: BDF1 mice, P329 reticulum cell sarcoma ip, survival T/C
Assay: NCI In Vivo Anticancer Drug Screen. Data for tumor model P329 Reticulum Cell Sarcoma (intraperitoneal) in B6D2F1 (BDF1) mice
Settings: endpoint: median survival time, schedule: Q01DX010 (ip), vehicle: saline, higher = longer survival
Description: The antitumor activity of compounds was measured in mice bearing transplantable tumors. Survival or tumor size were measured and the results are expressed as the measurement made in the treated group (T) divided by the measurement made in the vehicle treated control group (C). The tumor model used in this assay is P329 Reticulum Cell Sarcoma (intraperitoneal) in B6D2F1 (BDF1) mice

Measured: T/C

N#[N+]c1cnc([O-])[nH]c1=O
inactive: dose: 1.25 mg/kg/injection 122 % of control | dose: 2.5 mg/kg/injection 103 % of control | dose: 5.0 mg/kg/injection 110 % of control | dose: 10.0 mg/kg/injection 117 % of control

Nc1nc(SCc2ccccc2)c2[nH]cnc2n1
inactive: dose: 8.0 mg/kg/injection 100 % of control and 121 % of control | dose: 16.0 mg/kg/injection 114 % of control and 121 % of control | dose: 32.0 mg/kg/injection 117 % of control | dose: 64.0 mg/kg/injection 89 % of control

COc1cc(-c2ccc(Nc3ccccc3C(=O)O)c(OC)c2)ccc1Nc1ccccc1C(=O)O
inactive: dose: 12.5 mg/kg/injection 100 % of control | dose: 25.0 mg/kg/injection 103 % of control | dose: 50.0 mg/kg/injection 110 % of control | dose: 100.0 mg/kg/injection 110 % of control

COc1ccc2c(c1OC)C(=O)O[C@@H]2[C@H]1c2c(cc3c(c2OC)OCO3)CCN1C
inactive: dose: 62.5 mg/kg/injection 92 % of control

CN(C)c1nc(N(C)C)nc(N(C)C)n1
inactive: dose: 18.8 mg/kg/injection 96 % of control and 103 % of control | dose: 37.5 mg/kg/injection 92 % of control and 100 % of control | dose: 75.0 mg/kg/injection 92 % of control and 107 % of control | dose: 150.0 mg/kg/injection 107 % of control and 114 % of control
